# Patent publication US4728650A, “3,4-dihydrobenzopyran derivatives and medicinal uses thereof” (Kuraray Co., Ltd., priority 1985, dated 1988)
# Where a name gives a salt, the structure may show the parent alone.
# Legend:
# [1] = Stress ulcer (water immersion stress) in mice; assay type: in vivo, mice (ddK strain, male)
# Procedure: Male mice of ddK strain (body weights, 18-20 g) were placed in a stress cage in groups of 6 animals and immersed down to the level of the xiphoid process in a water bath at 22±1° C. to give a stress. Five hours later the mice were raised from the water bath and the stomach was removed under ether anesthesia. Into the stomach was infused 1.2 ml of a 10% aqueous solution of formaldehyde and, then, the stomach was immersed in a 10% aqueous solution of formaldehyde for 10 minutes for fixation of the tissue. After fixation, an incision was made along the greater curvature for observing ulcers which had appeared in the glandular portion of the stomach. The degree of ulceration was classified according to the following ulcer index scale and the % inhibition of ulcer was estimated.
# 2: Hemorrhage and erosion
# 3: Severe hemorrhage and erosion
# Each test compound was orally administered, as suspended in a gum arabic solution in concentration of 5%, to mice 10 minutes before stress loading.
# [2] = Pyloric ligation-induced ulcer (Shay ulcer) in rats; assay type: in vivo, Wistar rats (male); details: Table 2, 200 mg/kg i.d.
# Procedure: Male Wistar rats (body weights, 180-200 g) were used in groups of 7 animals. After 48-hour fasting, laparotomy was performed under ether anesthesia and the pylorus was ligated with a suture. After 13 hours, the stomach was isolated under ether anesthesia and gastric juice was collected. The gastric juice was centrifuged at 3,000 r.p.m. for 10 minutes and the volume and pH value of gastric juice were determined. The pH value was determined by using pH paper. After collection of gastric juice, a 10% aqueous solution of formaldehyde was infused into the stomach until the stomach was inflated. Then, the stomach was immersed in a 10% aqueous solution of formaldehyde for 10 minutes for fixation of the tissue. After fixation, an incision was made along the greater curvature for observing ulcers which had developed in the glandular portion of the stomach. The degree of ulcer was classified according to the following ulcer index scale.
# 2: 1-5 small ulcers (<3 mm in diameter)
# 3: Six or more small ulcers or one large ulcer (>3 mm in diameter)
# 4: Two or more large ulcers
# Each test compound was administered, as suspended in a gum arabic solution in concentration of 5%, into the duodenum immediately after pyloric ligation.
# [3] = Indomethacin-induced ulcer in rats; assay type: in vivo, Wistar rats (male); details: Table 3, 200 mg/kg p.o.
# Procedure: (§1) Male Wistar rats (body weights, 170-210 g) were used in groups of 6 to 8 animals. Indomethacin, 20 mg/kg body weight, was injected subcutaneously to rats which had been deprived of food for 24 hours. After 7 hours, the stomach was excised under ether anesthesia. A 10% aqueous solution of formaldehyde was infused into the stomach until the stomach was inflated and, then, the stomach was immersed in a 10% aqueous solution of formaldehyde for 10 minutes for fixation of the tissue. After fixation, an incision was made along the greater curvature and the length of ulcers occurring in the glandular portion of the stomach was measured. The total length of ulcers occurring in a rat was taken as an ulcer index. Each test compound was orally administered, as suspended in a gum arabic solution in concentration of 5%, to rats 10 minutes before subcutaneous injection of indomethacin. The doses of test compounds and the ulcer indices for treated and untreated rats are shown in Table 3 for purposes of comparison. The % inhibition of ulcer by each test compound as estimated from the ulcer index is also presented in the same table.
# [4] = Hydrochloric acid-ethanol-induced ulcer in rats; assay type: in vivo, Wistar rats (male)
# Procedure: as §1, with “Male Wistar rats (body weights, 160-190 g) were used in groups” for “The doses”, “6 to 8 animals. One milliliter of a 60% aqueous solution of ethanol containing 150 mM hydrochloric acid was administered orally to rats which had been deprived of food for 24 hours. After one hour,” for “test compounds and”, “stomach was excised under ether anesthesia. In a manner similar to that described in study” for “ulcer indices”, “indomethacin-induced ulcer,” for “treated and untreated rats are shown in Table 3 for purposes of comparison. The % inhibition of ulcer by each test compound as estimated from”, “was determined. Each test compound was orally administered, as suspended” for “is also presented”, “a gum arabic solution in concentration of 5%, to rats 1 hour before administration of hydrochloric acid-ethanol.” for “the same table.”
# [5] = Expectorant action: tracheal secretion of fluorescein sodium in rats; assay type: in vivo, Wistar rats (male); details: 50 mg/kg oral
# Procedure: Male Wistar rats (body weights, 280-320 g) were used in groups of 7 animals. Each test compound was orally administered in dose of 50 mg/kg body weight to rats. Immediately after administration, 0.3 ml/100 g (body weight of rat) of a 1% aqueous solution of fluorescein sodium was injected into the caudal vein. One hour after administration of the test compound, pentobarbital sodium 100 mg/kg (body weight of rat) was injected intraperitoneally so that deep anesthesia might cause the rat to die. Then, the trachea was exposed and an incision was made in the trachea. A sonde was inserted thereinto and ligation was made. To the sonde was connected a syringe containing 10 ml of a 5% solution of sodium hydrogen carbonate kept at 37° C. and 4 ml of the solution of sodium hydrogen carbonate was injected into the lung. After 5 minutes, the fluid in the lung was removed. After this procedure of injection and removal was repeated three times, the fluid removed from the lung was filtered and the filtrate was made up with water to make 20 ml. The intensity of fluroescence was determined at the excitation wave length of 491 nm and the fluorescence wave length of 510 nm using a spectrophotometer (HITACHI model 650-10, Hitachi, Ltd.). The amount of fluorescein sodium secreted into the trachea was estimated from the intensity of fluorescence. Each test compound was administered as suspended in a gum arabic solution in concentration of 5%.
compound,measurement,setting,value
CN1[C@@H]2CC[C@H]1C[C@@H](OC(=O)C(CO)c1ccccc1)C2 (stereo partly shown) [Atropine sulfate],% Inhibition of ulcer,"[1]; Table 1, 30 mg/kg p.o.",80.99%
same,Ulcer index (mean ± S.E.),"[1]; Table 1, 30 mg/kg p.o., control 2.63 ± 0.18",0.50 ± 0.29 mm
"CNC(=NC#N)NCCSCc1nc[nH]c1C [Cimetidine, N""-cyano-N-methyl-N'-[2-[(5-methyl-1H-imidazol-4-yl)methylthio]ethyl]guanidine, reference compound]",% Inhibition of ulcer,"[1]; mouse, in vivo, po, 200 mg/kg",49.43%
same,Ulcer index (mean ± S.E.),"[1]; mouse, in vivo, po, 200 mg/kg",1.33 ± 0.21 mm
same,pH value of gastric juice,[2]; control 1.77 ± 0.54,2.29 ± 0.88
same,Volume of gastric juice,[2]; control 5.09 ± 0.40,5.13 ± 0.99 ml/100 g body weight
same,Ulcer index (mean ± S.E.),"[2]; scale 0-5, control 3.86 ± 0.40",1.71 ± 0.18
same,% Inhibition of ulcer,[3],86.97%
same,Ulcer index (mean ± S.E.),[3]; control 10.36 ± 2.07,1.35 ± 0.48 mm
same,inhibition in vivo at 200 mg/kg,"[4]; Rattus norvegicus, po, 1 h, Table 7, 200 mg/kg p.o.",77.9%
same,inhibition in vivo at 200 mg/kg,"[4]; Rattus norvegicus, po, 1 h, Table 12, 200 mg/kg p.o.",78%
same,Ulcer index (mean ± S.E.),"[4]; Table 4, 200 mg/kg p.o., control 7.36 ± 1.23",1.63 ± 0.49 mm
same,Ulcer index (mean ± S.E.),"[4]; Table 12, 200 mg/kg p.o., control 9.93 ± 0.91",2.18 ± 1.04 mm
"COc1ccc(CN2CCN(C(=O)CC3(C)CCc4cc(Cl)ccc4O3)CC2)c(OC)c1OC (stereo not shown) [Compound (29), 1-[(6-Chloro-3,4-dihydro-2-methyl-2H-benzopyran-2-yl)acetyl]-4-(2,3,4-trimethoxybenzyl)piperazine]",Secretory amount (mean ± S.E.),"[5]; Table 13, control 5.30 ± 0.40",5.57 ± 0.36 μg/100 g (body weight of rat)/
"COc1ccc(C(=O)N2CCN(CCC3(C)CCc4cc(Cl)ccc4O3)CC2)cc1 (stereo not shown) [Compound (26), 1-[2-(6-Chloro-3,4-dihydro-2-methyl-2H-benzopyran-2-yl)ethyl]-4-(4-methoxybenzoyl)piperazine]",Secretory amount (mean ± S.E.),"[5]; Table 15, control 5.20 ± 0.78",9.61 ± 0.83 μg/100 g (body weight of rat)/
"COc1c(C)c(C)c2c(c1C)CCC(C)(CCN1CCN(C(=O)c3ccc(N(C)C)cc3)CC1)O2 (stereo not shown) [Compound (20), 1-[2-(3,4-Dihydro-6-methoxy-2,5,7,8-tetramethyl-2H-benzopyran-2-yl)ethyl]-4-(4-dimethylaminobenzoyl)piperazine]",Secretory amount (mean ± S.E.),"[5]; Table 15, control 5.20 ± 0.78",8.72 ± 1.45 μg/100 g (body weight of rat)/
"COc1ccc(CN2CCN(CCC3(C)CCc4c(C)c(OC)c(C)c(C)c4O3)CC2)c(OC)c1OC (stereo not shown) [Compound (31), 1-[2-(3,4-Dihydro-6-methoxy-2,5,7,8-tetramethyl-2H-benzopyran-2-yl)ethyl]-4-(2,3,4-trimethoxybenzyl)piperazine]",inhibition in vivo at 50 mg/kg,"[4]; Rattus norvegicus, po, 1 h, Table 11, 50 mg/kg p.o.",100%
same,Ulcer index (mean ± S.E.),"[4]; Table 11, 50 mg/kg p.o., control 6.12 ± 1.76",0.00 ± 0.00 mm
same,Secretory amount (mean ± S.E.),"[5]; Table 16, control 6.455 ± 0.766",7.529 ± 0.751 μg/100 g (body weight of rat)/
"COc1c(C)c(C)c2c(c1C)CCC(C)(CCN1CCN(C(=O)c3ccc([N+](=O)[O-])cc3)CC1)O2 (stereo not shown) [Compound (21), 1-[2-(3,4-Dihydro-6-methoxy-2,5,7,8-tetramethyl-2H-benzopyran-2-yl)ethyl]-4-(4-nitrobenzoyl)piperazine]",Secretory amount (mean ± S.E.),"[5]; Table 15, control 5.20 ± 0.78",5.89 ± 0.40 μg/100 g (body weight of rat)/
"COc1c(C)c(C)c2c(c1C)CCC(C)(CCN1CCN(C(=O)c3ccc(Br)cc3)CC1)O2 (stereo not shown) [Compound (22), 1-[2-(3,4-Dihydro-6-methoxy-2,5,7,8-tetramethyl-2H-benzopyran-2-yl)ethyl]-4-(4-bromobenzoyl)piperazine]",Secretory amount (mean ± S.E.),"[5]; Table 15, control 5.20 ± 0.78",6.26 ± 0.32 μg/100 g (body weight of rat)/
"COc1c(C)c(C)c2c(c1C)CCC(C)(CCN1CCN(C(=O)c3ccccc3)CC1)O2 (stereo not shown) [Compound (32), 1-Benzoyl-4-[2-(3,4-dihydro-6-methoxy-2,5,7,8-tetramethyl-2H-benzopyran-2-yl)ethyl]piperazine]",Secretory amount (mean ± S.E.),"[5]; Table 13, control 5.30 ± 0.40",5.43 ± 0.72 μg/100 g (body weight of rat)/
"COc1c(C)c(C)c2c(c1C)CCC(C)(CCN1CCN(C(=O)c3ccncc3)CC1)O2 (stereo not shown) [Compound (23), 1-[2-(3,4-Dihydro-6-methoxy-2,5,7,8-tetramethyl-2H-benzopyran-2-yl)ethyl]-4-(4-pyridylcarbonyl)piperazine]",Secretory amount (mean ± S.E.),"[5]; Table 15, control 5.20 ± 0.78",8.16 ± 1.03 μg/100 g (body weight of rat)/
"COc1c(C)c(C)c2c(c1C)CCC(C)(CCN1CCN(C(=O)CCC=C(C)CCC=C(C)CCC=C(C)C)CC1)O2 (stereo not shown) [Compound (24), 1-[2-(3,4-Dihydro-6-methoxy-2,5,7,8-tetramethyl-2H-benzopyran-2-yl)ethyl]-4-(5,9,13-trimethyl-4,8,12-tetradecatrienoyl)piperazine]",Secretory amount (mean ± S.E.),"[5]; Table 14, control 1.60 ± 0.18",2.74 ± 0.22 μg/100 g (body weight of rat)/
"COc1ccc(C(=O)N2CCN(CCCC3(C)CCc4c(C)c(OC)c(C)c(C)c4O3)CC2)cc1 (stereo not shown) [Compound (27), 1-[3-(3,4-Dihydro-6-methoxy-2,5,7,8-tetramethyl-2H-benzopyran-2-yl)propyl]-4-(4-methoxybenzoyl)piperazine]",Secretory amount (mean ± S.E.),"[5]; Table 15, control 5.20 ± 0.78",6.45 ± 0.72 μg/100 g (body weight of rat)/
